Assay results as given in patent publication US10059760B2 (priority 2014, dated 2018).
Like-named read-outs stand apart in the source and are kept apart here.

Settings: mouse, in vivo

SMILES: O=C(O)c1cn(C2CC2)c2cc(N3CCNCC3)c(F)cc2c1=O [ciprofloxacin]
- tolerance (sc, 25 mg/kg): favorably tested

SMILES: C[C@H]1c2cccc(O)c2C(=O)C2=C(O)[C@]3(O)C(=O)C(C(N)=O)=C(O)[C@@H](N(C)C)[C@@H]3[C@@H](O)[C@@H]21 [doxycycline]
- tolerance (50 mg/kg): poorly tolerated
